Data reported in patent EP4790048A1, “S1PR4 REGULATOR COMPOUND FOR AUTOIMMUNE DISEASE TREATMENT AND APPLICATION THEREOF” (Shengyuan Zetong (Shanghai) Pharmaceutical Co., Ltd, priority 2023, dated 2025).
“Also recorded” adds a separate entry of the source. Where two headings read alike, the source gives them in different places.

How the values were obtained:
S1PR3 = molecular target: T1, S1PR3 (Homo sapiens, UniProt Q99500); assay: β-arrestin recruitment, PathHunter CHO-K1-S1PR3 cells; type: cell-based; conditions: mean ± SD
T1 construct: expressed in transfected cells
T1 sequence (Q99500 whole entry, species assumed): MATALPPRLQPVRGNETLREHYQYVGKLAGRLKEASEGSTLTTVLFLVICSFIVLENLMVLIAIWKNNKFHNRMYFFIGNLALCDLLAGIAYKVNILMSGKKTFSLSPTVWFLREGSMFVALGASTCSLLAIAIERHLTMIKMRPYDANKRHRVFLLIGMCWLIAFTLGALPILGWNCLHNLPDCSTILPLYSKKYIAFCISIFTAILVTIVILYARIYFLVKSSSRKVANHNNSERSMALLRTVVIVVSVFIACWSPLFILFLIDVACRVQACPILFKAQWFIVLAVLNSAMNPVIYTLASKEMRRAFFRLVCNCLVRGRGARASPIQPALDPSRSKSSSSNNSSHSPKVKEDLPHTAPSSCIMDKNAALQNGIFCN

S1PR5 = molecular target: T2, S1PR5 (Homo sapiens, UniProt Q9H228); assay: FLIPR assay, S1PR5-CHO cell line; type: cell-based; conditions: mean ± SD
T2 construct: expressed in transfected cells
T2 sequence (Q9H228 whole entry, species assumed): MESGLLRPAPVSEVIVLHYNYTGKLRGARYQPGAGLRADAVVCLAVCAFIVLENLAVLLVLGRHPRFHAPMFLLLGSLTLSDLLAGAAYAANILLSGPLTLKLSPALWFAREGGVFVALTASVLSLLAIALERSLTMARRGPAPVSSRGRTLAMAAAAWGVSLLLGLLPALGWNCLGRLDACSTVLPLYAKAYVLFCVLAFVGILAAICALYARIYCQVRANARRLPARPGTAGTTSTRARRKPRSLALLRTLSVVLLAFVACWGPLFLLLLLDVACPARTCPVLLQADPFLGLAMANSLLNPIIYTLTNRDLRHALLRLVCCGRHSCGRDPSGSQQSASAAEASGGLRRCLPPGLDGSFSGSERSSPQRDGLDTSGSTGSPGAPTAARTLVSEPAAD

hS1P1 = molecular target: T3, hS1P1 (Homo sapiens, UniProt P21453); assay: Tango β-arrestin recruitment luciferase assay, Tango-hS1P1-CHO; type: cell-based; conditions: S1PR1; Tango-S1PR1-CHO-K1 cells; mean ± SD; read-out: EC50
T3 construct: expressed in transfected cells; host or cells: CHO
T3 sequence (P21453 whole entry): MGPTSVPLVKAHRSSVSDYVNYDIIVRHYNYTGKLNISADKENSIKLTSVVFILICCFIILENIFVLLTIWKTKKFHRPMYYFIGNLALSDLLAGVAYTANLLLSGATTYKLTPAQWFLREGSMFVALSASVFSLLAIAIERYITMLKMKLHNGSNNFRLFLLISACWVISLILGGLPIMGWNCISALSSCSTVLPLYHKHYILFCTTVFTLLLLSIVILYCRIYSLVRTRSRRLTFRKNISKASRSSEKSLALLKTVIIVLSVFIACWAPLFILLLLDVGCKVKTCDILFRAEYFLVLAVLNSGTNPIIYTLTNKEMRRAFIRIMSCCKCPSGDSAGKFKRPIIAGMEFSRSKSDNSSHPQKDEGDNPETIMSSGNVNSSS
How it was run: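 CHO Tango cells (receptor–V2 tail–TEV/tTA fusion, β-arrestin 2–TEV, UAS-luciferase reporter) plated overnight (20 h) at 37°C, then treated 20 h with compounds, top final 45 µM, 9 five-fold dilutions, triplicates. Luciferase luminescence read; BAF-312 positive control at 1 µM (S1PR1) or 25 µM (S1PR4).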

S1PR2 = molecular target: T4, S1PR2 (Homo sapiens, UniProt O95136); assay: FLIPR assay, S1PR2-CHO cell line; type: cell-based; conditions: mean ± SD
T4 construct: expressed in transfected cells
T4 sequence (O95136 whole entry, species assumed): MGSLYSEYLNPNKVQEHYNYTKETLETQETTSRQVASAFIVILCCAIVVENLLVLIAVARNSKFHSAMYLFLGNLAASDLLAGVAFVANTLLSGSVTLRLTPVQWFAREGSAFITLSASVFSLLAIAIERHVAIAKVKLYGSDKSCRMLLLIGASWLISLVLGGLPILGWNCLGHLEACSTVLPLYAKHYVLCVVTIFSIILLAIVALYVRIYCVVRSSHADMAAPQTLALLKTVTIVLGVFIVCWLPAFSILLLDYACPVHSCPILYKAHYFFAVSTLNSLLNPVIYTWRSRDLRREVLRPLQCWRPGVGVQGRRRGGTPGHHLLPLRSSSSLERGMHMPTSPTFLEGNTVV

BALB/c mice = assay: Imiquimod-induced mouse psoriasis model; type: in vivo
Source text: The imiquimod-induced mouse psoriasis model is a commonly used model for psoriasis research. This model uses the topical immune modulator imiquimod (IMQ) to induce lesions similar to human psoriasis on the skin of mice.
• Mice: Female BALB/c mice, aged 6-8 weeks. • Imiquimod cream: 5% IMQ cream. • Experimental Procedures • Animal preparation: Mice were acclimated to the laboratory environment for at least one week.
Random grouping: Generally, 5 mice were included in each group. Specifically, the groups were as follows: adalimumab injection group for positive control; compounds 30 and 67 administered by gavage, divided into 3 dosage groups: 0.3, 1, and 3 mg/kg.
The hair on the backs of the mice in each group was shaved with a razor, covering an area of approximately 2 × 3 cm^2.
5% IMQ cream was applied daily to the shaved area on the mouse backs at a dose of 62.5 mg of IMQ cream for 6-7 consecutive days. Skin reactions of the mice were observed after 7 days, including erythema, scaling, and skin thickening.

SKG mice = assay: Curdlan-induced ankylosing spondylitis (AS) model in SKG mice; type: in vivo; conditions: compound 30 3 mg/kg; for peripheral clinical symptom scores: Week 12, compound 67 3 mg/kg intragastric daily, adalimumab 10 mg/kg i.p., P < 0.05 vs model group; for swelling of the wrist and ankle joints / spinal CT imaging scores: compound 67 3 mg/kg; for spinal CT imaging scores: adalimumab 10 mg/kg, P<0.05 vs model group
Method: After adaptive feeding, SKG mice were used for the experiment. Except for 5 mice as the blank control group, the other 20 mice were intraperitoneally injected with Curdlan (3 mg per mouse) at week 0 and week 2 of the experiment to establish an AS mouse model, and were randomly divided into 4 groups: model group, positive control group treated with adalimumab (10 mg/kg), compound 30 group (3 mg/kg), and compound 67 group (3 mg/kg), with 5 mice in each group. Mice in the compound 30 and 67 groups were intragastrically administered compound 30 and 67 daily starting from week 3.3 until sacrifice; the positive control group received intraperitoneal injection of adalimumab injection (first administration at week 3.3, second at week 9). Body weight was measured every week to adjust the dosage.
Clinical symptom observation of the limbs and toes were conducted, and their redness and swelling were scored, with a total score of 16 points (4 points per foot).
• 0 = No swelling • 1 = Mild swelling and redness on the top of the foot • 2 = Severe swelling and redness on the top of the foot • 3 = Severe swelling and redness in the wrist or ankle joint • 4 = Severe swelling in the wrist or ankle joint and toes.
CT scans were performed on mice at Week 13.4 and 14.3 of the experiment to obtain imaging data of the mice's bones and joints. Image WL: 1400; WW: 2000.
• 1. Spine (total 2 points): 1 point for narrowed intervertebral space, 2 points for complete fusion. • 2. Sacroiliac joints (1 point for each side, total 2 points): 0.5 points for blurred and sclerotic articular surface, 0.5 points for narrowed joint space. • 3. Zygapophyseal joints of the spine (1 point for each side, total 2 points): 0.5 points for narrowed joint space, 1 point for complete fusion.
Analysis of variance (ANOVA) was performed using IBM SPSS Statistics software to obtain statistical results of the dataset, with P < 0.05 considered statistically significant.

MRL/lpr mice = assay: Systemic lupus erythematosus model, MRL/lpr mice; type: in vivo; conditions: for renal pathology (HE and PAS staining): 8 weeks of treatment
Method: Based on this, the inventor conducted efficacy evaluation on this compound using MRL/lpr mice, a classic model of lupus erythematosus.
The efficacy of Compound 67 was evaluated using MRL/Lpr lupus model mice.
The specific groups were as follows: MPJ control group, model group, positive drug Cenerimod group at 0.5 mg/kg, and Compound 67 at two doses: 1 mg/kg and 3 mg/kg.

[1] = gavage 0.3, 1 and 3 mg/kg, after 7 days of IMQ
[2] = high dose of 3 mg/kg, compared with adalimumab
[3] = Compound 67 1 mg/kg and 3 mg/kg, 8 weeks, vs SLE model group

Question: Which results are given for `CCc1cc(/C(C)=N/OCc2ccc(-c3ccccc3)c(C)c2)ccc1CN1CC[C@H](C(=O)O)C1` [Compound 30]?
Answer: EC50 (S1PR3): no agonist activity; EC50 (S1PR3; read-out: EC50): > 10 µM; EC50 (S1PR5): no agonist activity; EC50 (S1PR5; read-out: EC50): > 10 µM; EC50 (hS1P1): 0.0876 ± 0.00335 µM; EC50 (S1PR2): no agonist activity; EC50 (S1PR2; read-out: EC50): > 10 µM; skin reactions (erythema, scaling, skin thickening) (BALB/c mice; [1]): significant alleviating effects at all concentrations in a dose-dependent manner; skin reactions (erythema, scaling, skin thickening) (BALB/c mice; [2]): therapeutic effects similar to those of adalimumab; peripheral clinical symptom scores (SKG mice): significantly lower; swelling of the wrist and ankle joints (SKG mice): significantly reduced swelling of the wrist and ankle joints; spinal CT imaging scores (SKG mice): significantly lower imaging scores; renal pathology (HE and PAS staining) (MRL/lpr mice; vs SLE model group): improves renal pathological injury; also recorded: renal interstitial inflammatory cell infiltration was significantly reduced; serum anti-nuclear / anti-double-stranded DNA antibody level (MRL/lpr mice; 8 weeks, vs SLE model group): dose-dependently reduces; also recorded: markedly decreased; subcutaneous nodules (MRL/lpr mice; SLE mice, vs model): dose-dependently reduces; also recorded: significantly reduced subcutaneous nodules; body weight gain and mortality (MRL/lpr mice; continuous administration for 8 weeks, vs SLE model group): reduces the mortality rate; also recorded: prevented body weight gain and reduced mortality in a dose-dependent manner; Th1- and Th17-positive cells in spleen, Th1/Th2 and Th17/Treg ratios (MRL/lpr mice; vs SLE model group): regulates the number and ratio of T lymphocytes; also recorded: significantly reduce the number of Th1- and Th17-positive cells

Question: What does the source list for `CCc1cc(/C(C)=N/OCc2ccc(-c3cnc(F)cn3)c(C)c2)ccc1CN1CC[C@H](C(=O)O)C1` [Compound 67, (S, E)-1-(2-ethyl-4-(1-(((4-(5-fluoropyrazin-2-yl)-3-methylbenzyl)oxy)imino)ethyl)benzyl)pyrrolidine-3-carboxylic acid]?
Answer: EC50 (S1PR3; read-out: EC50): > 10 µM; EC50 (S1PR5; read-out: EC50): 3.74 ± 0.221 µM; EC50 (hS1P1): 0.195 ± 0.016 µM; EC50 (S1PR2; read-out: EC50): > 10 µM; skin reactions (erythema, scaling, skin thickening) (BALB/c mice; [1]): significant alleviating effects at all concentrations in a dose-dependent manner; skin reactions (erythema, scaling, skin thickening) (BALB/c mice; [2]): therapeutic effects similar to those of adalimumab; peripheral clinical symptom scores (SKG mice): significantly lower; swelling of the wrist and ankle joints (SKG mice): significantly reduced swelling of the wrist and ankle joints; spinal CT imaging scores (SKG mice): significantly lower imaging scores; renal pathology (HE and PAS staining) (MRL/lpr mice; vs SLE model group): inflammatory cell infiltration was significantly reduced; serum anti-nuclear / anti-double-stranded DNA antibody level (MRL/lpr mice; 8 weeks, vs SLE model group): significantly reduces the anti-double-stranded DNA antibody level; also recorded: significantly reduce the level of anti-double-stranded DNA antibody; serum creatinine level (MRL/lpr mice; [3]): significantly reduce the serum creatinine level; urinary microalbumin level (MAU) (MRL/lpr mice; [3]): significantly reduced the urinary microalbumin level; Th1- and Th17-positive cells in spleen, Th1/Th2 and Th17/Treg ratios (MRL/lpr mice; vs SLE model group): regulates the number and ratio of T lymphocytes; also recorded: significantly reduce the number of Th1- and Th17-positive cells
